Laboratory results: ChEMBL document CHEMBL5532666 (J Med Chem, 2024)
The source made the active and inactive calls. No cut-off for these calls is given here.

Legend:
[1] = target: T1, Serine/threonine-protein kinase 4 (Homo sapiens) (UniProt Q13043); conditions: dose 10.0 µM
T1 sequence (whole entry): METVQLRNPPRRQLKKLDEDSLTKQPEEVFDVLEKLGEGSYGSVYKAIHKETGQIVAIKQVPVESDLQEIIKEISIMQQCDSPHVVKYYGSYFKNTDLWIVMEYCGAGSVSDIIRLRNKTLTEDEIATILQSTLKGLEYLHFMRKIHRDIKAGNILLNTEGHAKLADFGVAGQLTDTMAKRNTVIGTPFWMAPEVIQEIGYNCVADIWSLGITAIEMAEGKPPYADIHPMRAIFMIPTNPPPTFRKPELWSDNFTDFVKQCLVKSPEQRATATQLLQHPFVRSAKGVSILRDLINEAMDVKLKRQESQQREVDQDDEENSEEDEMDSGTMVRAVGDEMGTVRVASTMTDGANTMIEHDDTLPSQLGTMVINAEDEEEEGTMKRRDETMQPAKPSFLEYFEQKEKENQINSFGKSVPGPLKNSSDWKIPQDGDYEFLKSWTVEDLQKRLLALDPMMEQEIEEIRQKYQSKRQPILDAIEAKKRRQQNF
Description: Binding affinity to recombinant MST1 (unknown origin) kinase domain assessed as thermal stabilization by measuring change in melting temperature at 10 uM by DSF analysis

[2] = target: T2, Serine/threonine-protein kinase 24 (Homo sapiens, UniProt Q9Y6E0); assay: Binding affinity to C-terminal full length human MST3 expressed in intact HEK293T cells incubated for 2 hrs by NanoBRET assay; assay type: cell-based
Target sequence in this assay (Q9Y6E0 whole entry): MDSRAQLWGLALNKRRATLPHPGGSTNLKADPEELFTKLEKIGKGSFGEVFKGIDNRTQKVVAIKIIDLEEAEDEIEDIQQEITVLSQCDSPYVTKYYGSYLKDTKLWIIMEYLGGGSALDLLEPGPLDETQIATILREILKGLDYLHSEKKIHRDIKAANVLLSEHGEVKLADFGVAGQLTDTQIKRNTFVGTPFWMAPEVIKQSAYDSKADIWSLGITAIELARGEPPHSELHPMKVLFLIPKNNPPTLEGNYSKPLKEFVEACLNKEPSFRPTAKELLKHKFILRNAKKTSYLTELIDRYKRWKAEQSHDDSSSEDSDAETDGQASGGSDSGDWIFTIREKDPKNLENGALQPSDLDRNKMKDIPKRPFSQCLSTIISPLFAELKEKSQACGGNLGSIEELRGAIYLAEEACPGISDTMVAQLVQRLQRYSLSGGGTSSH

[3] = target: T3, Serine/threonine-protein kinase 26 (Homo sapiens, UniProt Q9P289); conditions: dose 10.0 µM
Target sequence in this assay (Q9P289 2-416 limits assumed): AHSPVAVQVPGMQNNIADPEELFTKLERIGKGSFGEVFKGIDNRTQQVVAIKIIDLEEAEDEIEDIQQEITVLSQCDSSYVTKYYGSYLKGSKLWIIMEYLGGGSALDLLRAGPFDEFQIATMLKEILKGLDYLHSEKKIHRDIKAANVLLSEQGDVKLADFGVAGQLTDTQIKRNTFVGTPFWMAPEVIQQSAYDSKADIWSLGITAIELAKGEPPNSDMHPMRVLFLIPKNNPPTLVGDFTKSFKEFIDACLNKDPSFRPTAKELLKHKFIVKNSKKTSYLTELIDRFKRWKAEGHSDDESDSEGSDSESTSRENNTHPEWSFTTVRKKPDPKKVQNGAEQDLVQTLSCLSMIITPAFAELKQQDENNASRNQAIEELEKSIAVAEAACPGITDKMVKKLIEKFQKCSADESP
Description: Binding affinity to recombinant MST4 (unknown origin) kinase domain assessed as thermal stabilization by measuring change in melting temperature at 10 uM by DSF analysis

[4] = target: T4, Serine/threonine-protein kinase 4 (Homo sapiens, UniProt Q13043); assay: Binding affinity to N-terminal full length human MST1 expressed in intact HEK293T cells incubated for 2 hrs by NanoBRET assay; assay type: cell-based
T4 sequence (Q13043 whole entry): T1 sequence (whole entry)

[5] = target: T5, Serine/threonine-protein kinase 3 (Homo sapiens, UniProt Q13188); assay: Binding affinity to N-terminal full length human MST2 expressed in intact HEK293T cells incubated for 2 hrs by NanoBRET assay; assay type: cell-based
T5 sequence (Q13188 whole entry): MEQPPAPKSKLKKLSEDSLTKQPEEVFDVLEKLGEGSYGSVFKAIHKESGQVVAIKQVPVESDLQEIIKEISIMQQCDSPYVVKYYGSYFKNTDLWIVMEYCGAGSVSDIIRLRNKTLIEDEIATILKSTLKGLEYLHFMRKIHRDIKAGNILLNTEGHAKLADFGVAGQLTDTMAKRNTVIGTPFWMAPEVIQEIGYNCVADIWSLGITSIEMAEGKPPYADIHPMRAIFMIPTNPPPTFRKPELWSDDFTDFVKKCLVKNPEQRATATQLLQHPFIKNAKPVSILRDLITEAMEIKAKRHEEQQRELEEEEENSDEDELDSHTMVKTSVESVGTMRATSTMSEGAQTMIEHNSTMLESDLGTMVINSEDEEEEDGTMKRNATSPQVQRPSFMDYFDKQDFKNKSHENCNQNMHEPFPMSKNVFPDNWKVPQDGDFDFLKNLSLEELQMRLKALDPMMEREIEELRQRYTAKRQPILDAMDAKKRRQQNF

[6] = target: T6, Serine/threonine-protein kinase 3 (Homo sapiens) (UniProt Q13188); conditions: dose 10.0 µM
T6 sequence (whole entry): T5 sequence (Q13188 whole entry)
Description: Binding affinity to recombinant MST2 (unknown origin) kinase domain assessed as thermal stabilization by measuring change in melting temperature at 10 uM by DSF analysis

[7] = target: T3, Serine/threonine-protein kinase 26; assay: Binding affinity to C-terminal full length human MST4 expressed in permeabilized HEK293T cells incubated for 2 hrs by NanoBRET assay; assay type: cell-based
Target sequence in this assay (Q9P289 whole entry): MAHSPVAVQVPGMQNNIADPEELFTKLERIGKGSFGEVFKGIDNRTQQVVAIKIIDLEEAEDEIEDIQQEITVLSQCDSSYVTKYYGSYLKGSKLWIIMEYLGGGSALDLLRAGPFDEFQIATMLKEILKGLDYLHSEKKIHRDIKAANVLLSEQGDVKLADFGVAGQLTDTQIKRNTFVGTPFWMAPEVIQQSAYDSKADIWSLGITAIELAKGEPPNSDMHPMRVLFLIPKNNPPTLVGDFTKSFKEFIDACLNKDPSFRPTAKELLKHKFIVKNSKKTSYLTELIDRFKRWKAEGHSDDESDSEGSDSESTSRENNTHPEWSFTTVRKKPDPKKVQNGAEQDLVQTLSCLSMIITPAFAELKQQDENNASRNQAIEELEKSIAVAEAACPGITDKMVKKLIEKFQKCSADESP

[8] = target: Glycogen synthase kinase-3 beta (Homo sapiens) (UniProt P49841); assay: Binding affinity to GSK3B (unknown origin) assessed as thermal stabilization by measuring change in melting temperature by DSF analysis
[9] = target: T2, Serine/threonine-protein kinase 24; conditions: dose 10.0 µM
Target sequence in this assay (Q9Y6E0 whole entry, looked up): as the sequence (Q9Y6E0 whole entry) above
Description: Binding affinity to recombinant MST3 (unknown origin) kinase domain assessed as thermal stabilization by measuring change in melting temperature at 10 uM by DSF analysis

[10] = target: T2, Serine/threonine-protein kinase 24; assay: Binding affinity to C-terminal full length human MST3 expressed in permeabilized HEK293T cells incubated for 2 hrs by NanoBRET assay; assay type: cell-based
Target sequence in this assay (Q9Y6E0 whole entry): as above

[11] = target: T3, Serine/threonine-protein kinase 26; assay: Binding affinity to C-terminal full length human MST4 expressed in intact HEK293T cells incubated for 2 hrs by NanoBRET assay; assay type: cell-based
Target sequence in this assay (Q9P289 whole entry): as the sequence (Q9P289 whole entry) above

[12] = tested on: HCT-116; assay: Cell cycle arrest in human HCT-116 cells expressing […] assessed as G2/M phase cells at 10 uM incubated for 72 hrs by Hoechst33342 staining based analysis (reference value: 38%); assay type: functional
[13] = tested on: HCT-116; assay: Cell cycle arrest in human HCT-116 cells expressing […] assessed as G1 phase cells at 1 uM incubated for 72 hrs by Hoechst33342 staining based analysis (reference value: 52%); assay type: functional
[14] = tested on: HCT-116; assay: Cell cycle arrest in human HCT-116 cells expressing […] assessed as G1 phase cells at 10 uM incubated for 72 hrs by Hoechst33342 staining based analysis (reference value: 52%); assay type: functional
[15] = tested on: HCT-116; assay: Cell cycle arrest in human HCT-116 cells expressing […] assessed as G2/M phase cells at 1 uM incubated for 72 hrs by Hoechst33342 staining based analysis (reference value: 38%); assay type: functional
[16] = tested on: HCT-116; assay: Cell cycle arrest in human HCT-116 cells expressing […] assessed as S phase cells at 10 uM incubated for 72 hrs by Hoechst33342 staining based analysis relative to control; assay type: functional
[17] = tested on: HCT-116; assay: Cell cycle arrest in human HCT-116 cells expressing […] assessed as S phase cells at 1 uM incubated for 72 hrs by Hoechst33342 staining based analysis relative to control; assay type: functional
[18] = Toxicity in human HCT-116 cells expressing FUCCI assessed as decrease in normalized cell count at 1 to 10 uM measured after 72 hrs by Hoechst33342 staining based analysis relative to control; set-up: scale not given: the % may be the effect or the level left; conditions: hct-116, 72 h, dose 1-10 µM
[19] = target: T6, Serine/threonine-protein kinase 3 (Homo sapiens); assay: Binding affinity to MST2 (unknown origin) assessed as residual activity at 10 uM relative to control
[20] = target: T1, Serine/threonine-protein kinase 4 (Homo sapiens); assay: Binding affinity to MST1 (unknown origin) assessed as residual activity at 10 uM relative to control
[21] = target: T3, Serine/threonine-protein kinase 26; assay: Binding affinity to MST4 (unknown origin) assessed as residual activity at 10 uM relative to control
Target sequence in this assay (Q9P289 2-416 limits assumed): as the sequence (Q9P289 2-416 limits assumed) above

Glycogen synthase kinase-3 beta (Homo sapiens), sequence (P49841 whole entry, looked up): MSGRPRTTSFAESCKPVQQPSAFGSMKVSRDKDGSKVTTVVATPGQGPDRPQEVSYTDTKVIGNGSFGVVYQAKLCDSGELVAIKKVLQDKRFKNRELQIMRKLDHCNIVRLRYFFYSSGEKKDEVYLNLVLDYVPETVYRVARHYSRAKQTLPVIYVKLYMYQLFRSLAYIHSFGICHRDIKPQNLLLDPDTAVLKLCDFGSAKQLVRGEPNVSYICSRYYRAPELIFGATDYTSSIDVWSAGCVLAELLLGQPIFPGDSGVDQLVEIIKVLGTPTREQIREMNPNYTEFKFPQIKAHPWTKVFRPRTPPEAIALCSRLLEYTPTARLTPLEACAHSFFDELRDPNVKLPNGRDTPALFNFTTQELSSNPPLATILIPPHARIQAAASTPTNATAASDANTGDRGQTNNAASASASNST

| ΔTm [1] [°C] | EC50 [2] [µM] | ΔTm [3] [°C] | EC50 [4] [µM] | EC50 [5] [µM] | ΔTm [6] [°C] | EC50 [7] [µM] | ΔTm [9] [°C] | EC50 [10] [µM] | EC50 [11] [µM] | Structure (SMILES) | also measured |
| --- | --- | --- | --- | --- | --- | --- | --- | --- | --- | --- | --- |
| 0.7 | 1.75 | 4 | > 50 | 40.1 | 0.4 | 1.26 | 3.7 | 0.45 | – | O=C1NCCCCCCNc2nc(c3ccccc3n2)Nc2cc1[nH]n2 | ΔTm [8]: > 5 °C |
| 0.8 | 14.1 | 0.6 | 7.84 | 7.54 | 1.7 | 10.3 | 2.9 | 8.53 | 10.2 | O=C1NCCc2cccc(c2)Nc2ncc(Cl)c(n2)Nc2cc1[nH]n2 | – |
| 0.3 | 4.97 | 0.7 | 11.8 | 9.96 | 0.7 | 7.61 | 1.2 | 5.17 | 6.71 | O=C1NCCc2ccc(cc2)Nc2ncc(Cl)c(n2)Nc2cc1[nH]n2 | – |
| – | – | – | – | – | – | – | – | – | – | CNC(=O)c1nn(C)c2c1C(C)(C)Cc1cnc(Nc3ccc(N4CCN(C)CC4)cc3)nc1-2 [MILCICLIB] | Activity [12]: 21%; Activity [13]: 72%; Activity [14]: 63%; Activity [15]: 19%; Activity [16]: 16% |
| 1.5 | > 50 | 2.1 | > 50 | > 50 | 1 | 45 | 0.3 | 21.9 | > 50 | O=C1NCCCCCCNc2ncc(Cl)c(n2)Nc2cc1[nH]n2 | – |
| 1.7 | 6.51 | 4 | 13.7 | 13 | 1.3 | 2.44 | 3.9 | 0.92 | 11.8 | O=C1NCCc2cccc(c2)Nc2nc(c3ccccc3n2)Nc2cc1[nH]n2 | – |
| 1 | 4.45 | 4.7 | 28.6 | 28.3 | 2.3 | 2.75 | 3.3 | 1.46 | 17.5 | O=C1NCCc2ccc(cc2)Nc2nc(c3ccccc3n2)Nc2cc1[nH]n2 | – |
| 0.6 | 4.49 | 2.5 | > 50 | > 50 | 0.5 | 4.3 | 2.5 | 1.23 | 37.6 | O=C1NCCOCCNc2nc(c3ccccc3n2)Nc2cc1[nH]n2 | Activity [8]: inactive |
| 2.5 | 40.3 | 1.6 | 9.74 | 10.1 | 2.8 | 7.76 | 2.7 | 2.67 | > 50 | O=C1NCCCCCNc2ncc(Cl)c(n2)Nc2cc1[nH]n2 | – |
| 1 | 37 | 2.3 | > 50 | > 50 | 0.2 | > 50 | 0.5 | 38.3 | 38.8 | Cc1cnc2nc1Nc1cc([nH]n1)C(=O)NCCc1ccc(cc1)N2 | – |
| 1.1 | > 50 | 2.8 | > 50 | > 50 | 0.6 | 41.8 | 0.6 | 17.7 | > 50 | O=C1NCCOCCNc2ncc(Cl)c(n2)Nc2cc1[nH]n2 | – |

| Structure (SMILES) | ΔTm [1] [°C] | EC50 [2] [µM] | ΔTm [3] [°C] | EC50 [4] [µM] | EC50 [5] [µM] | ΔTm [6] [°C] | EC50 [7] [µM] | ΔTm [9] [°C] | EC50 [10] [µM] | EC50 [11] [µM] | also measured |
| --- | --- | --- | --- | --- | --- | --- | --- | --- | --- | --- | --- |
| N#CCc1ccc(Nc2nccc(Nc3cc(C4CC4)[nH]n3)n2)cc1 | 9.6 | 6.54 | 7.1 | – | – | 11.6 | – | 9.3 | – | 4.84 | Activity [17]: 18%; Activity [12]: 42%; Activity [18]: < 50%; Activity [13]: 52%; Activity [19]: 0.15%; Activity [14]: 42%; Activity [20]: 0.15%; Activity [15]: 30%; Activity [16]: 16%; Activity [21]: 0.15% |
